Results: ChEMBL document CHEMBL4359904, “Structural tuning of acridones for developing anticancer agents targeting dihydrofolate reductase” (Bioorg Med Chem Lett, 2019)
Active and inactive are the calls of the source. The calls are words filed in the database; no cut-off is given here.

Legend:
[1] = system: MCF7; assay: Growth inhibition of human MCF7 cells at 10^-5 M incubated for 48 hrs by sulforhodamine B assay relative to control; type: functional; conditions: MCF7, 48 h, read-out: GI
[2] = system: NCI-H460; assay: Growth inhibition of human NCI-H460 cells incubated for 48 hrs by sulforhodamine B assay; type: functional; conditions: NCI-H460, 48 h
[3] = system: SW-620; assay: Growth inhibition of human SW620 cells incubated for 48 hrs by sulforhodamine B assay; type: functional; conditions: SW-620, 48 h
[4] = system: SF-268; assay: Growth inhibition of human SF268 cells incubated for 48 hrs by sulforhodamine B assay; type: functional; conditions: SF-268, 48 h
[5] = system: OVCAR-5; assay: Growth inhibition of human OVCAR5 cells incubated for 48 hrs by sulforhodamine B assay; type: functional; conditions: OVCAR-5, 48 h
[6] = system: 786-0; assay: Growth inhibition of human 786-0 cells incubated for 48 hrs by sulforhodamine B assay; type: functional; conditions: 786-0, 48 h
[7] = system: LOX IMVI; assay: Growth inhibition of human LOXIMVI cells incubated for 48 hrs by sulforhodamine B assay; type: functional
[8] = target: T1, Dihydrofolate reductase (Homo sapiens, UniProt P00374); assay: Inhibition of human dihydrofolate reductase using dihydrofolic acid as substrate preincubated for 1 hr in presence of NADPH followed by substrate addition by enzyme immunoassay
T1 sequence (P00374 whole entry): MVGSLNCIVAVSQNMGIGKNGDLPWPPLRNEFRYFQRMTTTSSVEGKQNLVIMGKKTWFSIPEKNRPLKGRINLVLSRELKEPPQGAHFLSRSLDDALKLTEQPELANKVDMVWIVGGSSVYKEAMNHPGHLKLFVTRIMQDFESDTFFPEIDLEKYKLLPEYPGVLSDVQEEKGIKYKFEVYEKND

[9] = system: SK-MEL-2; assay: Growth inhibition of human SK-MEL-2 cells incubated for 48 hrs by sulforhodamine B assay; type: functional; conditions: SK-MEL-2, 48 h
[10] = system: A549; assay: Growth inhibition of human A549/ATCC cells incubated for 48 hrs by sulforhodamine B assay; type: functional; conditions: A549, 48 h
[11] = system: NCI-H460; assay: Growth inhibition of human NCI-H460 cells at 10^-5 M cells incubated for 48 hrs by sulforhodamine B assay relative to control; type: functional
[12] = system: Panel NCI-60 (60 carcinoma cell lines); assay: Growth inhibition of human NCI60 cells at incubated for 48 hrs by sulforhodamine B assay; type: functional
[13] = system: SF-539; assay: Growth inhibition of human SF539 cells incubated for 48 hrs by sulforhodamine B assay; type: functional; conditions: SF-539, 48 h
[14] = system: UO-31; assay: Growth inhibition of human UO31 cells incubated for 48 hrs by sulforhodamine B assay; type: functional; conditions: UO-31, 48 h
[15] = system: HT-29; assay: Growth inhibition of human HT-29 cells at 10^-5 M incubated for 48 hrs by sulforhodamine B assay relative to control; type: functional; conditions: HT-29, 48 h, read-out: GI
[16] = system: DU-145; assay: Growth inhibition of human DU145 cells incubated for 48 hrs by sulforhodamine B assay; type: functional; conditions: DU-145, 48 h
[17] = system: MDA-MB-231; assay: Growth inhibition of human MDA-MB-231/ATCC cells incubated for 48 hrs by sulforhodamine B assay; type: functional; conditions: MDA-MB-231, 48 h
[18] = system: SN12C; assay: Growth inhibition of human SN12C cells incubated for 48 hrs by sulforhodamine B assay; type: functional
[19] = system: HCC 2998; assay: Growth inhibition of human HCC2998 cells incubated for 48 hrs by sulforhodamine B assay; type: functional; conditions: HCC 2998, 48 h
[20] = system: C6; assay: Cell cycle arrest in rat C6 cells assessed as decrease in cell population at G2/M phase measured after 24 hrs by propidium iodide staining based flow cytometry analysis; type: functional
[21] = system: SNB-75; assay: Growth inhibition of human SNB75 cells incubated for 48 hrs by sulforhodamine B assay; type: functional; conditions: SNB-75, 48 h
[22] = system: UACC-257; assay: Growth inhibition of human UACC257 cells incubated for 48 hrs by sulforhodamine B assay; type: functional; conditions: UACC-257, 48 h
[23] = system: OVCAR-3; assay: Growth inhibition of human OVCAR3 cells incubated for 48 hrs by sulforhodamine B assay; type: functional; conditions: OVCAR-3, 48 h
[24] = system: CCRF-CEM; assay: Growth inhibition of human CCRF-CEM cells at 10^-5 M incubated for 48 hrs by sulforhodamine B assay relative to control; type: functional; conditions: read-out: GI
[25] = system: MOLT-4; assay: Growth inhibition of human MOLT4 cells incubated for 48 hrs by sulforhodamine B assay; type: functional; conditions: MOLT-4, 48 h
[26] = system: HL-60(TB); assay: Growth inhibition of human HL-60(TB) cells incubated for 48 hrs by sulforhodamine B assay; type: functional; conditions: HL-60, 48 h
[27] = target: T1, Dihydrofolate reductase; assay: Inhibition of human dihydrofolate reductase assessed as inhibition constant by UV-Vis spectra based Benesi Hilebrand equation analysis
[28] = system: NCI-H522; assay: Growth inhibition of human NCI-H522 cells incubated for 48 hrs by sulforhodamine B assay; type: functional; conditions: NCI-H522, 48 h
[29] = system: IGROV-1; assay: Growth inhibition of human IGROV1 cells at 10^-5 M incubated for 48 hrs by sulforhodamine B assay relative to control; type: functional; conditions: IGROV-1, 48 h, read-out: GI
[30] = read-out: pLC50 (the source's name) (converted)
[31] = read-out: LC50 (the source's name)

`O=C(OC[C@@H]1CO1)c1cccc2c(=O)c3ccccc3[nH]c12` showed an inhibition of growth at 10 µM [1] of 100%, a GI50 [2] of 1.7 µM and a CC50 [2, 30] of 51.3 µM. The TGI ([2]; read-out: pTGI (converted)) was 4.47 µM, the GI50 ([3]; read-out: GI50) was 0.83 µM and the CC50 [3, 31] was > 100 µM. The GI50 ([3]; read-out: pGI50 (converted)) was 0.832 µM, the CC50 [3, 30] was > 100 µM and the TGI ([3]; read-out: pTGI (converted)) was 12.9 µM. The GI50 ([4]; read-out: pGI50 (converted)) was 1.62 µM, the CC50 [4, 30] was > 100 µM and the TGI ([4]; read-out: pTGI (converted)) was 6.03 µM. The GI50 [5] was 2.45 µM, the CC50 [5, 30] was > 100 µM and the TGI ([5]; read-out: pTGI (converted)) was 6.46 µM. The GI50 [6] was 2.75 µM, the CC50 [6, 30] was > 100 µM and the TGI ([6]; read-out: pTGI (converted)) was 8.13 µM. For the same compound, the GI50 ([7]; read-out: pGI50 (converted)) was 1.51 µM, the CC50 [7, 30] was 6.61 µM and the TGI ([7]; read-out: pTGI (converted)) was 3.16 µM. It also gave an IC50 [8] of 0.01 µM, a GI50 [9] of 1.95 µM and a CC50 [9, 30] of 7.41 µM. For the same compound, the TGI ([9]; read-out: pTGI (converted)) was 3.8 µM, the GI50 [10] was 2.45 µM and the CC50 [10, 30] was > 100 µM. The TGI ([10]; read-out: pTGI (converted)) was 7.24 µM, the “growth inhibition (GI)” value [11] was 100% and the GI50 [12] was 0.3 µM. It also gave a TGI [12] of 1.2 µM, a CC50 [12, 31] of 38 µM and a GI50 [13] of 1.78 µM. The CC50 [13, 30] was 7.76 µM, the TGI ([13]; read-out: pTGI (converted)) was 3.72 µM and the GI50 [14] was 1.74 µM. The CC50 [14, 30] was 77.6 µM, the TGI ([14]; read-out: pTGI (converted)) was 5.01 µM and the inhibition of growth at 10 µM [15] was 100%. For the same compound, the GI50 [16] was 1.35 µM, the CC50 [16, 30] was > 100 µM and the TGI ([16]; read-out: pTGI (converted)) was 5.89 µM. The GI50 [17] was 2.09 µM, the CC50 [17, 30] was > 100 µM and the TGI ([17]; read-out: pTGI (converted)) was 5.25 µM. The GI50 [18] was 1.82 µM, the CC50 [18, 30] was 41.7 µM and the TGI ([18]; read-out: pTGI (converted)) was 7.08 µM. It also gave a GI50 [19] of 1.51 µM, a CC50 [19, 30] of 7.76 µM and a TGI ([19]; read-out: pTGI (converted)) of 3.47 µM. The inhibition [20] was “Active”, the GI50 [21] was 1.51 µM and the CC50 [21, 30] was 7.94 µM. The TGI ([21]; read-out: pTGI (converted)) was 3.47 µM, the GI50 [22] was 2.09 µM and the CC50 [22, 30] was 9.55 µM. The TGI ([22]; read-out: pTGI (converted)) was 4.47 µM, the GI50 [23] was 2.29 µM and the CC50 [23, 30] was 51.3 µM. The TGI ([23]; read-out: pTGI (converted)) was 7.24 µM, the inhibition of growth at 10 µM [24] was 93% and the GI50 ([25]; read-out: GI50) was 0.28 µM. For the same compound, the CC50 [25, 31] was > 100 µM, the GI50 ([25]; read-out: pGI50 (converted)) was 0.288 µM and the CC50 [25, 30] was > 100 µM. For the same compound, the TGI ([25]; read-out: pTGI (converted)) was 2.34 µM, the GI50 [26] was 1.29 µM and the CC50 [26, 30] was 8.51 µM. The TGI ([26]; read-out: pTGI (converted)) was 3.31 µM, the Ki [27] was 0.092 µM and the GI50 [28] was 1.62 µM. The CC50 [28, 30] was 8.71 µM, the TGI ([28]; read-out: pTGI (converted)) was 3.72 µM and the inhibition of growth at 10 µM [29] was 100%.
